From the Kinase Knowledgebase extract (Sharma et al. 2016)

Experiments:
PIK3CG (human) = PIK3CG (human) (UniProt P48736); assay: Inhibition of PIK3CG Kinase Activity
PIK3CA (human) = PIK3CA (human) (UniProt P42336); assay: Inhibition of PIK3CA Kinase Activity
PIK3CA (human), sequence (P42336 whole entry, looked up): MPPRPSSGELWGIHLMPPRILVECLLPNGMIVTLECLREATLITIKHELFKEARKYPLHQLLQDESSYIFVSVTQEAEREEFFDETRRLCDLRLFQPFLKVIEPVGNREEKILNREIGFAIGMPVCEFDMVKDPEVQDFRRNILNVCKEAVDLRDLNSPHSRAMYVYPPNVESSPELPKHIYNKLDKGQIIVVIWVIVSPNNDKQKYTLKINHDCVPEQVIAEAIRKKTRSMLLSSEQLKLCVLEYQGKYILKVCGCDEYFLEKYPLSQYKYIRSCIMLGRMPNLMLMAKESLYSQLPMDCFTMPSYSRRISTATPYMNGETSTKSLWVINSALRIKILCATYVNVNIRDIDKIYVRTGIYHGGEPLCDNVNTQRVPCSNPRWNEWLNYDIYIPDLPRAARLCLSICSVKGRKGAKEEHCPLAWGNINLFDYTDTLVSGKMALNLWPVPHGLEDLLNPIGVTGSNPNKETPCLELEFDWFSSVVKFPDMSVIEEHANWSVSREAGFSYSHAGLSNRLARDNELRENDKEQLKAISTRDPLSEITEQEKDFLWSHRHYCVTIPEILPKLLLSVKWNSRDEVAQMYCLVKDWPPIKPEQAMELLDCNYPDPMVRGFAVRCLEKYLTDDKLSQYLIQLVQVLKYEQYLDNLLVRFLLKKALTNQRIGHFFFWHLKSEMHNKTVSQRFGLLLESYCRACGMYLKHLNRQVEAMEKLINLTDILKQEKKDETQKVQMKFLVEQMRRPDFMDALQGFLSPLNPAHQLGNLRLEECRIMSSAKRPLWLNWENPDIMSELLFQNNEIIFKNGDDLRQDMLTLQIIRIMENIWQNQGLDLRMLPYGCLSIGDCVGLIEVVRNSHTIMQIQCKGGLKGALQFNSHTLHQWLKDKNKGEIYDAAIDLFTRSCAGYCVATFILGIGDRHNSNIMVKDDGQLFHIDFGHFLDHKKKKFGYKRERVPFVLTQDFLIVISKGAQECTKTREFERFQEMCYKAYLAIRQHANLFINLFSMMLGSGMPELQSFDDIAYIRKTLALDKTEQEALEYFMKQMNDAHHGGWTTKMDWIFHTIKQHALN

PIK3CG (human), sequence (P48736 whole entry, looked up): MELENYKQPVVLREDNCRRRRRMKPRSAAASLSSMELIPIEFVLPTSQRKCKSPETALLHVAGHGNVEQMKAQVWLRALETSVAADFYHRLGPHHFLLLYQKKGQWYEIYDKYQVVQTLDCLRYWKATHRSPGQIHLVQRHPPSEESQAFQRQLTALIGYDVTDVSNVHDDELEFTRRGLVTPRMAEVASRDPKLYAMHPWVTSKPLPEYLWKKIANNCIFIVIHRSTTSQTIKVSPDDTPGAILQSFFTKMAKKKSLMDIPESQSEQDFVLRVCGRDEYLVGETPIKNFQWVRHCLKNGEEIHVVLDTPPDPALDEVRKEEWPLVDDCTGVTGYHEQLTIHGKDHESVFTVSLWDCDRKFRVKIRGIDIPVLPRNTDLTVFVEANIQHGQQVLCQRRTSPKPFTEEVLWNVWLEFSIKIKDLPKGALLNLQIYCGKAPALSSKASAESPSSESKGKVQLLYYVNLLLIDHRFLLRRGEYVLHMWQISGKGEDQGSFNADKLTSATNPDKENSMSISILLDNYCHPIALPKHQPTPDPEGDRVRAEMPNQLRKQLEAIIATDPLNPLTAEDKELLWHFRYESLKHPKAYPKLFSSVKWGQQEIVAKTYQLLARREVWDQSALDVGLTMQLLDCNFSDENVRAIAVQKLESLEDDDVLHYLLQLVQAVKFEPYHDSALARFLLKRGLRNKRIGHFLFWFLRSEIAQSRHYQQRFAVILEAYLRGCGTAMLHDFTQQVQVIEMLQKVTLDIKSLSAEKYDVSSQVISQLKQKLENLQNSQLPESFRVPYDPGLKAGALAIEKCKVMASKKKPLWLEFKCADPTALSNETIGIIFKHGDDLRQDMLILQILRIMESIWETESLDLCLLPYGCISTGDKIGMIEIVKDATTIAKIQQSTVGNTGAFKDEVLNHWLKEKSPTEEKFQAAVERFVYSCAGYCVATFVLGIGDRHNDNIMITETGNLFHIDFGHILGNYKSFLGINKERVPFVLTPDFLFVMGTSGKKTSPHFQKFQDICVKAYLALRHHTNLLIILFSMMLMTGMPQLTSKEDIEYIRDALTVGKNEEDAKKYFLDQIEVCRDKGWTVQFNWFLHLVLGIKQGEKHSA

| IC50 (PIK3CG (human)) [µM] | IC50 (PIK3CA (human)) [µM] | SMILES |
| --- | --- | --- |
| 8.4 | 5.66 | CCCNC(=O)Nc1ccc(-c2nc(N3CCOCC3)c3ccc4c(ccn4C)c3n2)cc1 |
| 10 |  | CN(C)CCCNC(=O)Nc1ccc(-c2nc(N3CCOCC3)c3ccc4c(ccn4C)c3n2)cc1 |
| 9.84 | 12 | Cn1ccc2c3nc(-c4ccc(C(=O)O)cc4)nc(N4CCOCC4)c3ccc21 |
| 7.42 | 2.56 | Cn1ccc2c3nc(-c4cccc(C(N)=O)c4)nc(N4CCOCC4)c3ccc21 |
| 4.66 | 6.31 | Cn1ccc2c3nc(-c4cccc5[nH]ccc45)nc(C4COCCN4)c3ccc21 (stereo not drawn) |
| 10 |  | CN1CCN(C(=O)Nc2ccc(-c3nc(N4CCOCC4)c4ccc5c(ccn5C)c4n3)cc2)CC1 |
| 10 |  | Cn1ccc2c3nc(-c4ccc(N)cc4)nc(N4CCOCC4)c3ccc21 |
| 2.77 | 4.28 | Cn1ccc2c3nc(-c4cccc(C#N)c4)nc(N4CCOCC4)c3ccc21 |
